Measurements as given in publication PMC9971056 (JHEP Reports, 2022).

Test system: HepG2 cells
Assay: LD50 in HepG2 cells
Type: cell-based, Human

## CC1(C)CC[C@]2(C(=O)O)CC[C@]3(C)[C@H](C(=O)C=C4[C@@]5(C)C=C(C#N)C(=O)C(C)(C)[C@@H]5CC[C@]43C)[C@@H]2C1 [bardoxolone]
  LD50 in HepG2 cells: < 1 µM
